Assay results reported in ChEMBL document CHEMBL3885861, “Open TG-GATES”.

Organism: Rattus norvegicus
Test: Open TG-GATES - Regimen: Single
Format: toxicity, organism-based, Sprague-Dawley
Parameters: regimen Single, gender Male, age 6 weeks
Conditions: in vivo, po, route gavage; for APTT / Bas / Eos / Fbg / Hb / Ht / Lym / MCH / MCHC / MCV / Mono / Neu / PT / Plat / RBC / Ret / WBC: tissue Blood; for KIDNEY_L / KIDNEY_R / KIDNEY_TOTAL: tissue Kidney; for LIVER: tissue Liver; for ALP / ALT / AST / BUN / CRE / DBIL / GLC / K / Na / PL / RALB / TBIL / TC / TG / TP / gamma-GTP: tissue Plasma
[1] = 75 mg/kg, 3 h, dose level Middle
[2] = 75 mg/kg, 6 h, dose level Middle
[3] = 75 mg/kg, 9 h, dose level Middle
[4] = 75 mg/kg, 24 h, dose level Middle
[5] = 250 mg/kg, 3 h, dose level High
[6] = 250 mg/kg, 6 h, dose level High
[7] = 250 mg/kg, 9 h, dose level High
[8] = 250 mg/kg, 24 h, dose level High

## CN1C(=O)CN=C(c2ccccc2)c2cc(Cl)ccc21 [DIAZEPAM]
[1]
  TERMINAL_BW: 217.1 g
  APTT: 15.6 s
  Bas: 0%
  Eos: 1.2%
  Fbg: 212.4 mg/dL
  Hb: 13.8 g/dL
  Ht: 41.7%
  Lym: 77.2%
  MCH: 22.1 pg
  MCHC: 33.1%
  MCV: 66.8 fL
  Mono: 6.2%
  Neu: 15.6%
  PT: 12.7 s
  Plat: 103.8 x10_4/uL
  RBC: 624.4 x10_4/ul
  Ret: 8.2%
  WBC: 74.8 x10_2/uL
  KIDNEY_L: 1 g
  KIDNEY_R: 1 g
  KIDNEY_TOTAL: 2 g
  LIVER: 10.1 g
  ALP: 916 IU/L
  ALT: 31.2 IU/L
  AST: 62.6 IU/L
  BUN: 12 mg/dL
  CRE: 0.5 mg/dL
  DBIL: 0.028 mg/dL
  GLC: 187.6 mg/dL
  K: 5.1 meq/L
  Na: 139.6 meq/L
  PL: 133 mg/dL
  RALB: 3.9 g/dL
  TBIL: 0.4 mg/dL
  TC: 73 mg/dL
  TG: 46.8 mg/dL
  TP: 5.5 g/dL
  gamma-GTP: 1.6 IU/L
[2]
  TERMINAL_BW: 213.3 g
  APTT: 16.5 s
  Bas: 0%
  Eos: 0.8%
  Fbg: 222.8 mg/dL
  Hb: 13.8 g/dL
  Ht: 41.9%
  Lym: 79.2%
  MCH: 22.3 pg
  MCHC: 33.1%
  MCV: 67.3 fL
  Mono: 7.2%
  Neu: 13.2%
  PT: 12.1 s
  Plat: 105.5 x10_4/uL
  RBC: 621.2 x10_4/ul
  Ret: 8.1%
  WBC: 115.9 x10_2/uL
  KIDNEY_L: 1 g
  KIDNEY_R: 1 g
  KIDNEY_TOTAL: 2 g
  LIVER: 10.3 g
  ALP: 899 IU/L
  ALT: 30.4 IU/L
  AST: 59 IU/L
  BUN: 13 mg/dL
  CRE: 0.5 mg/dL
  DBIL: 0.02 mg/dL
  GLC: 198.2 mg/dL
  K: 5.5 meq/L
  Na: 139.6 meq/L
  PL: 147.8 mg/dL
  RALB: 3.8 g/dL
  TBIL: 0.4 mg/dL
  TC: 77.4 mg/dL
  TG: 78.2 mg/dL
  TP: 5.8 g/dL
  gamma-GTP: 1.6 IU/L
[3]
  TERMINAL_BW: 215.6 g
  APTT: 16.4 s
  Bas: 0%
  Eos: 0.8%
  Fbg: 213.8 mg/dL
  Hb: 13.9 g/dL
  Ht: 41.8%
  Lym: 80.2%
  MCH: 21.1 pg
  MCHC: 33.1%
  MCV: 63.8 fL
  Mono: 5.4%
  Neu: 13.8%
  PT: 12.4 s
  Plat: 101.8 x10_4/uL
  RBC: 655.6 x10_4/ul
  Ret: 8.2%
  WBC: 90.1 x10_2/uL
  KIDNEY_L: 1 g
  KIDNEY_R: 1 g
  KIDNEY_TOTAL: 1.9 g
  LIVER: 9.7 g
  ALP: 771 IU/L
  ALT: 33 IU/L
  AST: 62.8 IU/L
  BUN: 14.2 mg/dL
  CRE: 0.6 mg/dL
  DBIL: 0.048 mg/dL
  GLC: 208 mg/dL
  K: 4.5 meq/L
  Na: 140 meq/L
  PL: 143.8 mg/dL
  RALB: 3.8 g/dL
  TBIL: 0.4 mg/dL
  TC: 71 mg/dL
  TG: 80.6 mg/dL
  TP: 5.7 g/dL
  gamma-GTP: 1.4 IU/L
[4]
  TERMINAL_BW: 230.6 g
  APTT: 16.2 s
  Bas: 0%
  Eos: 0.8%
  Fbg: 208.2 mg/dL
  Hb: 13.6 g/dL
  Ht: 40.9%
  Lym: 79.4%
  MCH: 21.6 pg
  MCHC: 33.2%
  MCV: 65.1 fL
  Mono: 5.6%
  Neu: 14%
  PT: 12.3 s
  Plat: 103.8 x10_4/uL
  RBC: 628.4 x10_4/ul
  Ret: 8%
  WBC: 115 x10_2/uL
  KIDNEY_L: 1 g
  KIDNEY_R: 1.1 g
  KIDNEY_TOTAL: 2.1 g
  LIVER: 11.2 g
  ALP: 921 IU/L
  ALT: 37.2 IU/L
  AST: 64 IU/L
  BUN: 17.8 mg/dL
  CRE: 0.6 mg/dL
  DBIL: 0.012 mg/dL
  GLC: 199 mg/dL
  K: 5.1 meq/L
  Na: 139.4 meq/L
  PL: 141.6 mg/dL
  RALB: 4 g/dL
  TBIL: 0.4 mg/dL
  TC: 75.6 mg/dL
  TG: 97.4 mg/dL
  TP: 5.8 g/dL
  gamma-GTP: 1.2 IU/L
[5]
  TERMINAL_BW: 215.9 g
  APTT: 16.1 s
  Bas: 0%
  Eos: 1%
  Fbg: 213.4 mg/dL
  Hb: 13.6 g/dL
  Ht: 41%
  Lym: 75.8%
  MCH: 22.1 pg
  MCHC: 33.1%
  MCV: 66.7 fL
  Mono: 5.6%
  Neu: 17.6%
  PT: 12.7 s
  Plat: 109.5 x10_4/uL
  RBC: 615 x10_4/ul
  Ret: 8.8%
  WBC: 72.4 x10_2/uL
  KIDNEY_L: 1 g
  KIDNEY_R: 1 g
  KIDNEY_TOTAL: 2 g
  LIVER: 10.3 g
  ALP: 734 IU/L
  ALT: 34.2 IU/L
  AST: 67.4 IU/L
  BUN: 12.2 mg/dL
  CRE: 0.5 mg/dL
  DBIL: 0.028 mg/dL
  GLC: 196.2 mg/dL
  K: 4.7 meq/L
  Na: 140 meq/L
  PL: 144.4 mg/dL
  RALB: 3.7 g/dL
  TBIL: 0.4 mg/dL
  TC: 79.4 mg/dL
  TG: 64.2 mg/dL
  TP: 5.7 g/dL
  gamma-GTP: 1.4 IU/L
[6]
  TERMINAL_BW: 216.7 g
  APTT: 16.1 s
  Bas: 0%
  Eos: 0.8%
  Fbg: 240.4 mg/dL
  Hb: 14.3 g/dL
  Ht: 43.4%
  Lym: 77.2%
  MCH: 21.7 pg
  MCHC: 32.9%
  MCV: 65.9 fL
  Mono: 6.4%
  Neu: 16%
  PT: 12.3 s
  Plat: 120.4 x10_4/uL
  RBC: 659.8 x10_4/ul
  Ret: 8.4%
  WBC: 85.8 x10_2/uL
  KIDNEY_L: 1 g
  KIDNEY_R: 1 g
  KIDNEY_TOTAL: 2 g
  LIVER: 10.3 g
  ALP: 823.6 IU/L
  ALT: 27.8 IU/L
  AST: 68 IU/L
  BUN: 15.8 mg/dL
  CRE: 0.6 mg/dL
  DBIL: 0.008 mg/dL
  GLC: 210.6 mg/dL
  K: 5.6 meq/L
  Na: 141.6 meq/L
  PL: 161 mg/dL
  RALB: 4.1 g/dL
  TBIL: 0.5 mg/dL
  TC: 85.6 mg/dL
  TG: 74.4 mg/dL
  TP: 6.2 g/dL
  gamma-GTP: 1.8 IU/L
[7]
  TERMINAL_BW: 217 g
  APTT: 16.2 s
  Bas: 0%
  Eos: 1%
  Fbg: 240.5 mg/dL
  Hb: 14.2 g/dL
  Ht: 43%
  Lym: 80.5%
  MCH: 21.8 pg
  MCHC: 33%
  MCV: 66 fL
  Mono: 6.2%
  Neu: 12%
  PT: 12.2 s
  Plat: 118.3 x10_4/uL
  RBC: 652.2 x10_4/ul
  Ret: 8.2%
  WBC: 104.3 x10_2/uL
  KIDNEY_L: 1 g
  KIDNEY_R: 1 g
  KIDNEY_TOTAL: 2 g
  LIVER: 10 g
  ALP: 725 IU/L
  ALT: 25.8 IU/L
  AST: 67 IU/L
  BUN: 16.5 mg/dL
  CRE: 0.6 mg/dL
  DBIL: 0.0325 mg/dL
  GLC: 214.8 mg/dL
  K: 4.8 meq/L
  Na: 141.8 meq/L
  PL: 147.5 mg/dL
  RALB: 3.8 g/dL
  TBIL: 0.4 mg/dL
  TC: 84.5 mg/dL
  TG: 70.8 mg/dL
  TP: 5.8 g/dL
  gamma-GTP: 1.2 IU/L
[8]
  TERMINAL_BW: 235.1 g
  APTT: 15.6 s
  Bas: 0%
  Eos: 0.8%
  Fbg: 211 mg/dL
  Hb: 13.5 g/dL
  Ht: 40.5%
  Lym: 75%
  MCH: 21.9 pg
  MCHC: 33.4%
  MCV: 65.4 fL
  Mono: 7.6%
  Neu: 16.6%
  PT: 12.2 s
  Plat: 103.7 x10_4/uL
  RBC: 620.4 x10_4/ul
  Ret: 8.3%
  WBC: 133.5 x10_2/uL
  KIDNEY_L: 1.1 g
  KIDNEY_R: 1.1 g
  KIDNEY_TOTAL: 2.2 g
  LIVER: 12 g
  ALP: 1023.4 IU/L
  ALT: 37 IU/L
  AST: 57.4 IU/L
  BUN: 14.4 mg/dL
  CRE: 0.5 mg/dL
  DBIL: 0.006 mg/dL
  GLC: 201.6 mg/dL
  K: 5.1 meq/L
  Na: 140 meq/L
  PL: 167.4 mg/dL
  RALB: 4 g/dL
  TBIL: 0.4 mg/dL
  TC: 91.6 mg/dL
  TG: 105.8 mg/dL
  TP: 5.9 g/dL
  gamma-GTP: 1.4 IU/L
